Literature values in patent publication US20130095160A1, “RESORBABLE POLYSTATIN BIOMATERIALS” (priority 2011, published 2013).

Key:
SR-BI receptor = molecular target: T1, SR-BI receptor (Homo sapiens, UniProt Q8WTV0); conditions: via activation of the SR-BI receptor
T1 sequence (Q8WTV0 1-552): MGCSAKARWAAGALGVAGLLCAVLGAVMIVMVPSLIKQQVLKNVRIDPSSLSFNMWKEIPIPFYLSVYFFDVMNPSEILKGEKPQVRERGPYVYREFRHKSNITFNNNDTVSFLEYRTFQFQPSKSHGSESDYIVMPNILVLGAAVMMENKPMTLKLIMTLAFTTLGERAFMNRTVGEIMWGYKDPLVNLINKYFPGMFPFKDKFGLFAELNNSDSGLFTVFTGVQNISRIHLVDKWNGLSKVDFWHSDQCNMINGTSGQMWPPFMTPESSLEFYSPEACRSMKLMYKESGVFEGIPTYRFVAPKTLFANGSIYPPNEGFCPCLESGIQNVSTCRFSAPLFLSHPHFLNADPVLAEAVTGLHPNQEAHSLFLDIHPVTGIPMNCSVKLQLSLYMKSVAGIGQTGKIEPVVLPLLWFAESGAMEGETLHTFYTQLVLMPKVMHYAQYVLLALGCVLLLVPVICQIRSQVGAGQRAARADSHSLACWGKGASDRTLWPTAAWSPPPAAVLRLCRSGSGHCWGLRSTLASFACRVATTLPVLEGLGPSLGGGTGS

eNOS = conditions: 12 mg (or 10(−5) M lovastatin); previously shown

efficiency at generating EDNO compared with HDL (SR-BI receptor): more efficient than HDL
SMILES: CC[C@H](C)C(=O)O[C@H]1C[C@@H](C)C=C2C=C[C@H](C)[C@H](CC[C@@H]3C[C@@H](O)CC(=O)O3)[C@H]21 [lovastatin]
eNOS activation in vitro (eNOS): maximally effective
